From patent US20160297830A1, “NOVEL COMPOUNDS USEFUL FOR THE TREATMENT OF BACTERIAL INFECTIOUS DISEASES” (GALAPAGOS NV, priority 2013, published 2016)
≈ marks a conversion by molar mass, not a printed value. Like-named read-outs stand apart in the source and are kept apart here.

Legend:
[1] = target: DNA Polymerase IIIα (DnaE) from Staphylococcus aureus (Staphylococcus aureus, UniProt Q6GG04); assay: biochemical
[2] = tested on: H. influenza Hi3 ATCC 31517; assay: organism not typed; assay type: cell-based; details: read-out: MIC Hi3
[3] = tested on: S. aureus Sa4 NCTC 6571; assay: Antibacterial activity assay (MIC), S. aureus Sa4; assay type: cell-based; details: Staphylococcus aureus
[4] = target: DNA III Polymerase E (Escherichia coli, UniProt P10443); assay: In vitro activity against DNA III Polymerase E, E. coli; assay type: biochemical
Experimental: A radioactive filterplate assay was used to assess inhibitory activity of compounds on DNA Polymerase IIIα. Five μL of a dilution series of compound, starting from 100 μM highest concentration, 1/5 dilution, was added to the wells of a 96 well plate. Recombinant enzyme was diluted to 0.47 μg/mL in a buffer containing 20 mM Tris pH7.5, 8 mM DTT, 10 mM MgOAc, 0.05% CHAPS and 10 μL thereof was added to the compound dilutions. The reaction was started with the addition of 10 μL substrate in the same buffer, containing activated calf thymus DNA (Sigma, D4522), dATP, dGTP, dCTP, dTTP (Invitrogen) and [α-33P]-dTTP (Perkin Elmer, NEG605H001) at a concentration of 62.5 μg/mL, 50 nM and 7.5 μCi/mL respectively. The mixture was incubated at 30° C. for 120 minutes and terminated by addition of phosphoric acid. Samples were transferred to filter plates and incorporated radioactivity was measured by the Topcount. Data were converted to percent inhibition with respect to positive and negative controls. IC50 values were calculated using Graph Prism™ software.

[5] = tested on: H. influenza Hi47 clinical strain, Ampicillin Resistant; assay: organism not typed; assay type: cell-based; details: read-out: MIC Hi47
[6] = tested on: E. coli Ec50 efflux pump KO; assay: microbe, parasite or virus in culture; assay type: cell-based; details: Escherichia coli, read-out: MIC Ec50 efflux pump KO
[7] = tested on: E. coli Ec1 ATCC 25922; assay: Antibacterial activity assay (MIC), E. coli Ec1; assay type: cell-based; details: Escherichia coli
[8] = tested on: S. aureus Sa1 ATCC 13709; assay: microbe, parasite or virus in culture; assay type: cell-based; details: Staphylococcus aureus
[9] = tested on: H. influenza Hi106 ATCC 51907; assay: organism not typed; assay type: cell-based; details: read-out: MIC Hi106
[10] = tested on: S. aureus Sa26 ATCC 25923; assay: Antibacterial activity assay (MIC), S. aureus Sa26; assay type: cell-based; details: Staphylococcus aureus
[11] = tested on: H. influenza Hi10 clinical strain; assay: organism not typed; assay type: cell-based; details: read-out: MIC Hi10
[12] = tested on: S. aureus Sa2 clinical strain NCIMB 41953, MRSA; assay: microbe, parasite or virus in culture; assay type: cell-based; details: Staphylococcus aureus, read-out: MIC Sa2
[13] = tested on: E. coli Ec113 efflux pump KO; assay: microbe, parasite or virus in culture; assay type: cell-based; details: Escherichia coli, read-out: MIC Ec113 efflux pump KO
[14] = NCTC6571, S. aureus Sa4 NCTC 6571, sensitive strain, read-out: MIC Sa4
[15] = ATCC25922, E. coli Ec1 ATCC 25922, sensitive strain, read-out: MIC Ec1
[16] = ATCC13709, S. aureus Sa1 ATCC 13709, sensitive strain, Mueller-Hinton Broth, 37° C., read-out: MIC Sa1
[17] = ATCC25923, read-out: MIC Sa26 + 10% SH, S. aureus Sa26 + 10% SH
[18] = ATCC25923, read-out: MIC Sa26 + 50% SH, S. aureus Sa26 + 50% SH
[19] = ATCC25923, S. aureus Sa26 ATCC 25923, sensitive strain, Mueller-Hinton Broth, 37° C., read-out: MIC Sa26
[20] = DNA polymerase III, E. coli, read-out: IC50 semiquantitative scoring, E. coli
[21] = DNA polymerase III, S. aureus, read-out: IC50 semiquantitative scoring, S. aureus
[22] = ATCC25923, read-out: MIC Sa26 + 10% SH
[23] = ATCC25923, read-out: MIC Sa26 + 50% SH

Sequence of DNA Polymerase IIIα (DnaE) from Staphylococcus aureus (Q6GG04 1-1022): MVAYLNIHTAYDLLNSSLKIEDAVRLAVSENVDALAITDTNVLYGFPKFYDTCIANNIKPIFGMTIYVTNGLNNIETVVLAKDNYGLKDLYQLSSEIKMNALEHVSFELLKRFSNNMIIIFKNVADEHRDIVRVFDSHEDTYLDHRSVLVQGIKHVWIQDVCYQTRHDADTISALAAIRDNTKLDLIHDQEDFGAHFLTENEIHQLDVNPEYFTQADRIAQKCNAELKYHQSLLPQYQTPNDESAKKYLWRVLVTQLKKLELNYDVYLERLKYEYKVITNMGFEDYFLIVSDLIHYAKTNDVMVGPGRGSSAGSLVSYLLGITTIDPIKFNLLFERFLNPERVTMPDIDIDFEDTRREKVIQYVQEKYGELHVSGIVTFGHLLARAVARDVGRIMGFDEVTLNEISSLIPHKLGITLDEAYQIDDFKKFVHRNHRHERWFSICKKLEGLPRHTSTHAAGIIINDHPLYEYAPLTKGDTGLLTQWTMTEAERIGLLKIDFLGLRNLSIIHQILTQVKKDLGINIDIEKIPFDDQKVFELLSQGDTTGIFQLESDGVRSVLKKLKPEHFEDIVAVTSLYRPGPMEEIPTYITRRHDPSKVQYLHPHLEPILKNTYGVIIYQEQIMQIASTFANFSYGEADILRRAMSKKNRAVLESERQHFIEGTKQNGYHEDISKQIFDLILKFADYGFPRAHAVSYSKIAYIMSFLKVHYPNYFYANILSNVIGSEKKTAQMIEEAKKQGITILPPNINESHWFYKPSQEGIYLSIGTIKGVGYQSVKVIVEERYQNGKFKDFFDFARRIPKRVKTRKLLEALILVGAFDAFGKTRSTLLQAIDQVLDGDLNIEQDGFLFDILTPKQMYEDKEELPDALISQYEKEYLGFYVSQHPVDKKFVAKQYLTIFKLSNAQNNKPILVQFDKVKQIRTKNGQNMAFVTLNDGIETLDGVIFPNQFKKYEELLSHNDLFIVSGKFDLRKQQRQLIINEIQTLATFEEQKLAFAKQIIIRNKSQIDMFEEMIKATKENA
Sequence of DNA III Polymerase E (P10443 whole entry): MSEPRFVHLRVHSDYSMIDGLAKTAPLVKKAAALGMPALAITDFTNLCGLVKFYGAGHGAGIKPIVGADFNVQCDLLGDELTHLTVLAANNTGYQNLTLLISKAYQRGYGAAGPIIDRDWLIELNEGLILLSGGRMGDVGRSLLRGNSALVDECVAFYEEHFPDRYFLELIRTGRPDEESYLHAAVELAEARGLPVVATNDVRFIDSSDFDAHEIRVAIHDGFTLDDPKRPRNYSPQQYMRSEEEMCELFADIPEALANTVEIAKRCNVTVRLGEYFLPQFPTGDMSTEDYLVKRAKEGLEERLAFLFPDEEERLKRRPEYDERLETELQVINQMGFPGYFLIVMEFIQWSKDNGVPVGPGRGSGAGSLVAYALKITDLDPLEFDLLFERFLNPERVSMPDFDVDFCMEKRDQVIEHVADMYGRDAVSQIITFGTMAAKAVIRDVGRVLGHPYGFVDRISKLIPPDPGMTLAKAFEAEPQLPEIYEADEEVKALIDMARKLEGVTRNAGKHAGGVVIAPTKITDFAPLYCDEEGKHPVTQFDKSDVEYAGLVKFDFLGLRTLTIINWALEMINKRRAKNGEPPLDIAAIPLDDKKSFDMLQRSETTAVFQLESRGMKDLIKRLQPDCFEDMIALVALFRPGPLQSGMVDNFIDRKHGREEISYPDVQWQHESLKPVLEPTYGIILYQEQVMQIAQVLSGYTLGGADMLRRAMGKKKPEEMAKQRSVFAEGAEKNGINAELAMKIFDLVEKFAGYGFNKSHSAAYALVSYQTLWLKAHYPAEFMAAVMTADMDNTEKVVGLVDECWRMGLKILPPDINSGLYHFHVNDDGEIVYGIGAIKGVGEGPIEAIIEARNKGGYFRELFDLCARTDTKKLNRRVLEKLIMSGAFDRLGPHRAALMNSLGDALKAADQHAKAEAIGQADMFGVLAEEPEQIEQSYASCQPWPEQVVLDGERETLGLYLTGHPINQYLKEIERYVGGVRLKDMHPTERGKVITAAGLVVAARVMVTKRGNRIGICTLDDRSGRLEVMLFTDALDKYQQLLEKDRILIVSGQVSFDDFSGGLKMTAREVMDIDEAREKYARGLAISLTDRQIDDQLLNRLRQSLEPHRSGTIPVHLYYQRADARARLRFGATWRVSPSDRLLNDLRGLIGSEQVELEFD

SMILES	IC50 [1]	MIC [2]	MIC [3, 14]	MIC [5]	MIC [6]	MIC [7, 15]	MIC [8, 16]	MIC [9]	MIC [10, 17]	MIC [10, 18]	MIC [10, 19]	MIC [11]	MIC [12]	MIC [13]	IC50 [4, 20]	IC50 [1, 21]	further results
COC[C@@H](O)[C@H]1OC(=O)[C@H](COC)[C@H]2C=C[C@H]3[C@H]4O[C@]2(/C(C)=C/[C@H]1C)[C@@H]3[C@H](O)[C@@H](C)[C@H]4O [Compound 1, Baleomycin]	2210 to 22100 nM	> 64 µg/mL	> 64 µg/mL	64 µg/mL (≈ 141 µM)	2 µg/mL (≈ 4.42 µM)	> 64 µg/mL	> 64 µg/mL	64 µg/mL (≈ 141 µM)	> 64 µg/mL	> 64 µg/mL	> 64 µg/mL	> 64 µg/mL	> 64 µg/mL	0.5 µg/mL (≈ 1.1 µM)			IC50 [4]: 2210 to 22100 nM
COC[C@@H](O)[C@H]1OC(=O)[C@H](COC)[C@H]2C=C[C@H]3[C@H]4O[C@]2(/C(C)=C/[C@H]1C)[C@@H]3[C@H](O)[C@@H](C)[C@H]4OC(=O)c1ccc[nH]1 [Compound 3, 8-O-1H-pyrrole-2′-carbonylbaleomycin]	1.83 to 1830 nM	> 64 µg/mL	0.5 µg/mL (≈ 0.916 µM)	> 64 µg/mL	8 µg/mL (≈ 14.7 µM)	> 64 µg/mL	0.5 µg/mL (≈ 0.916 µM)	64 µg/mL (≈ 117 µM)	1 µg/mL	2 µg/mL	1 µg/mL (≈ 1.83 µM)	64 µg/mL (≈ 117 µM)	0.5 µg/mL (≈ 0.916 µM)	0.125 µg/mL (≈ 0.229 µM)	1830 to 18300 nM		
COCC[C@H]1OC(=O)[C@H](COC)[C@H]2C=C[C@H]3[C@H]4O[C@]2(/C(C)=C/[C@H]1C)[C@@H]3[C@H](O)[C@@H](COC)[C@H]4OC(=O)c1ccc[nH]1 [Compound 4, 17-Deoxy-8-O-1H-pyrrole-2′-carbonylbranimycin]	1.79 to 1790 nM	> 64 µg/mL	2 µg/mL (≈ 3.57 µM)		> 64 µg/mL	> 64 µg/mL	4 µg/mL (≈ 7.15 µM)		4 µg/mL	8 µg/mL	4 µg/mL (≈ 7.15 µM)	> 64 µg/mL	4 µg/mL (≈ 7.15 µM)	4 µg/mL (≈ 7.15 µM)			IC50 [4]: > 17900 nM
COC[C@@H]1[C@@H](O)[C@@H]2[C@H]3C=C[C@@H]4[C@@H](COC)C(=O)O[C@H]([C@H](O)COC)[C@H](C)/C=C(\C)[C@@]24O[C@H]3[C@@H]1OC(=O)c1ccoc1 [Compound 5, 8-O-Furane-3′-carbonylbranimycin]		> 64 µg/mL	2 µg/mL (≈ 3.47 µM)	> 64 µg/mL	> 64 µg/mL	> 64 µg/mL	2 µg/mL (≈ 3.47 µM)	> 64 µg/mL	2 µg/mL	4 µg/mL	4 µg/mL (≈ 6.94 µM)	> 64 µg/mL	2 µg/mL (≈ 3.47 µM)		> 17300 nM	1.73 to 1730 nM	
COC[C@@H]1[C@@H](O)[C@@H]2[C@H]3C=C[C@@H]4[C@@H](COC)C(=O)O[C@H]([C@H](O)COC)[C@H](C)/C=C(\C)[C@@]24O[C@H]3[C@@H]1OC(=O)c1ccc(C)[nH]1 [Compound 6, 8-O-5-Methyl-1H-pyrrole-2′-carbonylbranimycin]	1.7 to 1700 nM	> 64 µg/mL		> 64 µg/mL				> 64 µg/mL				> 64 µg/mL	64 µg/mL (≈ 109 µM)	8 µg/mL (≈ 13.6 µM)	> 17000 nM		MIC ([3]; NCTC6571, read-out: MIC Sa4): > 64 µg/mL; MIC ([7]; ATCC25922, read-out: MIC Ec1): > 64 µg/mL; MIC ([8]; ATCC13709, read-out: MIC Sa1): > 64 µg/mL; MIC ([10]; ATCC25923, read-out: MIC Sa26): > 64 µg/mL; MIC [10, 22]: > 64 µg/mL; MIC [10, 23]: > 64 µg/mL
COC[C@@H](O)[C@H]1OC(=O)[C@H](COC)[C@H]2C=C[C@H]3[C@H]4O[C@]2(/C(C)=C/[C@H]1C)[C@@H]3[C@H](O)[C@@H](C)[C@H]4OC(=O)c1cc(F)c[nH]1 [Compound 23, 8-O-4-Fluoro-1H-pyrrole-2′-carbonylbaleomycin]	1.77 to 1770 nM	> 64 µg/mL		64 µg/mL (≈ 114 µM)				64 µg/mL (≈ 114 µM)				64 µg/mL (≈ 114 µM)	4 µg/mL (≈ 7.1 µM)	0.12 µg/mL (≈ 0.213 µM)	1770 to 17700 nM		MIC ([3]; NCTC6571, read-out: MIC Sa4): 1 µg/mL (≈ 1.77 µM); MIC ([7]; ATCC25922, read-out: MIC Ec1): > 64 µg/mL; MIC ([8]; ATCC13709, read-out: MIC Sa1): 1 µg/mL (≈ 1.77 µM); MIC ([10]; ATCC25923, read-out: MIC Sa26): 1 µg/mL (≈ 1.77 µM); MIC [10, 22]: 2 µg/mL; MIC [10, 23]: 4 µg/mL
COC[C@@H]1[C@@H](O)[C@@H]2[C@H]3C=C[C@@H]4[C@@H](COC)C(=O)O[C@H]([C@H](O)COC)[C@H](C)/C=C(\C)[C@@]24O[C@H]3[C@@H]1OC(=O)c1cc(Br)c[nH]1 [Compound 32, 8-O-4-Bromo-1H-pyrrole-2′-carbonylbranimycin]	1.53 to 1530 nM	> 64 µg/mL	8 µg/mL (≈ 12.2 µM)	> 64 µg/mL	> 64 µg/mL	> 64 µg/mL	4 µg/mL (≈ 6.11 µM)	> 64 µg/mL	16 µg/mL	64 µg/mL	16 µg/mL (≈ 24.4 µM)	> 64 µg/mL	4 µg/mL (≈ 6.11 µM)	64 µg/mL (≈ 97.8 µM)			
COC[C@@H]1[C@@H](O)[C@@H]2[C@H]3C=C[C@@H]4[C@@H](COC)C(=O)O[C@H]([C@H](O)COC)[C@H](C)/C=C(\C)[C@@]24O[C@H]3[C@@H]1OC(=O)c1cc(Br)c(Br)[nH]1 [Compound 34, 8-O-4,5-Dibromo-1H-pyrrole-2′-carbonylbranimycin]		> 64 µg/mL	32 µg/mL (≈ 43.6 µM)	16 µg/mL (≈ 21.8 µM)	> 64 µg/mL	> 64 µg/mL	64 µg/mL (≈ 87.3 µM)	> 64 µg/mL	> 64 µg/mL	> 64 µg/mL	64 µg/mL (≈ 87.3 µM)	> 64 µg/mL	64 µg/mL (≈ 87.3 µM)	64 µg/mL (≈ 87.3 µM)		1360 to 13600 nM	
COC[C@@H]1[C@@H](O)[C@@H]2[C@H]3C=C[C@@H]4[C@@H](COC)C(=O)O[C@H]([C@H](O)COC)[C@H](C)/C=C(\C)[C@@]24O[C@H]3[C@@H]1OC(=O)c1cc(Br)c(Br)o1 [Compound 36, 8-O-4,5-Dibromofurane-2′-carbonylbranimycin]		> 64 µg/mL	32 µg/mL (≈ 43.6 µM)	> 64 µg/mL	> 64 µg/mL	> 64 µg/mL	64 µg/mL (≈ 87.1 µM)	> 64 µg/mL	> 64 µg/mL	> 64 µg/mL	> 64 µg/mL	> 64 µg/mL	64 µg/mL (≈ 87.1 µM)	64 µg/mL (≈ 87.1 µM)		1.36 to 1360 nM	
COC[C@@H]1[C@@H](O)[C@@H]2[C@H]3C=C[C@@H]4[C@@H](COC)C(=O)O[C@H]([C@H](O)COC)[C@H](C)/C=C(\C)[C@@]24O[C@H]3[C@@H]1OC(=O)c1cc(Br)c(F)[nH]1 [Compound 37, 8-O-4-Bromo-5-Fluoro-1H-pyrrole-2′-carbonylbranimycin]		> 64 µg/mL	64 µg/mL (≈ 95.2 µM)	> 64 µg/mL	> 64 µg/mL	> 64 µg/mL	> 64 µg/mL	> 64 µg/mL	> 64 µg/mL	> 64 µg/mL	64 µg/mL (≈ 95.2 µM)	> 64 µg/mL	64 µg/mL (≈ 95.2 µM)	16 µg/mL (≈ 23.8 µM)		1.49 to 1490 nM	
COC[C@@H]1[C@@H](O)[C@@H]2[C@H]3C=C[C@@H]4[C@@H](COC)C(=O)O[C@H]([C@H](O)COC)[C@H](C)/C=C(\C)[C@@]24O[C@H]3[C@@H]1OC(=O)c1cc(C)n[nH]1 [Compound 39, 8-O-5-Methyl-1H-Pyrazole-3′-carbonylbranimycin]	1690 to 16900 nM	> 64 µg/mL	> 64 µg/mL	> 64 µg/mL	> 64 µg/mL	> 64 µg/mL	> 64 µg/mL	> 64 µg/mL	> 64 µg/mL	> 64 µg/mL	> 64 µg/mL	> 64 µg/mL	> 64 µg/mL	> 64 µg/mL			
